Article PMC6718313 (European journal of medicinal chemistry, 2019)

Target: T1, ABCG2 (Homo sapiens, UniProt Q9UNQ0)
T1 sequence (Q9UNQ0 1-655): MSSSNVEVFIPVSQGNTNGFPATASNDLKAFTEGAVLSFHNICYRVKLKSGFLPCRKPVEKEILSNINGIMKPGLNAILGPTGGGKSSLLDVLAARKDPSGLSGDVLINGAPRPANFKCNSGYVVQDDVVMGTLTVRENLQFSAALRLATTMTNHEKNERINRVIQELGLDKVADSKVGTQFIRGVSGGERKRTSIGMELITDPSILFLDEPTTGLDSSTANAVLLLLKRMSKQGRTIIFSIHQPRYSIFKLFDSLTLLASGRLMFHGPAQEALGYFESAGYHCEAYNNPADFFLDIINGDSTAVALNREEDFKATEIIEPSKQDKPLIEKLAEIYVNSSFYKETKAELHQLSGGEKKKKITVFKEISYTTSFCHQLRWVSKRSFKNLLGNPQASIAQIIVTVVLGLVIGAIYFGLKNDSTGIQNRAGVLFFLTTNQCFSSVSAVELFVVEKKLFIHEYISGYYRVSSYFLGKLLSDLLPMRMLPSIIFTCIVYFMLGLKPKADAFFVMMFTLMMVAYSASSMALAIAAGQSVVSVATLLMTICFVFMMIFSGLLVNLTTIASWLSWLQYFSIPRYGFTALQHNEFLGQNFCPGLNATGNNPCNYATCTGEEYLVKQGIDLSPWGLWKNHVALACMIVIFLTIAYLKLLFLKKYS
Assay: Vi-sensitive ABCG2 ATPase stimulation in High Five insect cell membranes
Assay type: biochemical

| EC50 | Compound |
| --- | --- |
| 210 nM | COc1ccc(C(=O)c2ccc3[nH]cc(C(=O)c4ccc(OC)cc4)c3c2OC)cc1 [compound 2, (4-methoxy-1H-indole-3,5-diyl)bis((4-methoxyphenyl)methanone)] |
| 750 nM | COc1ccc(C(=O)c2c[nH]c3ccc(OC)cc23)cc1 [compound 8, (5-Methoxy-1H-indol-3-yl)(4-methoxyphenyl)methanone] |
